According to paper PMC3563091 (Bioorganic & medicinal chemistry letters, 2012):

Target: CMG2 (Capillary Morphogenesis Gene protein 2) (Homo sapiens, UniProt P58335, R40C)
Format: binding

Chain of CMG2 (Capillary Morphogenesis Gene protein 2) (P58335 34-489 R40C limits assumed): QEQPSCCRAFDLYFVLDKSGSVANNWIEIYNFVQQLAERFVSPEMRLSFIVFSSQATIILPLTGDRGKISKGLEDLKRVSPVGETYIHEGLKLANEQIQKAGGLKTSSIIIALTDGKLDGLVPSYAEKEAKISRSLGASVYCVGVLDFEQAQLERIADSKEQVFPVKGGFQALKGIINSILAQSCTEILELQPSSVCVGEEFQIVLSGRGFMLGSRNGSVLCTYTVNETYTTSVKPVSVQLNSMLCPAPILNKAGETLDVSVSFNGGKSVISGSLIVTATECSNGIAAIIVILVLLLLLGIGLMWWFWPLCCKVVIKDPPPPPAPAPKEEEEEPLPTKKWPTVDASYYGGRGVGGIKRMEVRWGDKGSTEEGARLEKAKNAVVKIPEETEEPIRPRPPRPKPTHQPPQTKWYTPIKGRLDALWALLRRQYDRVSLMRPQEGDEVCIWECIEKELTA

Substance: 7-O-methyl neolambertellin [compound 1]
- IC50: 500 nM
